Source: patent publication US20050282205A1, “GLUT5 transporters expressed in cancer cells” (Xenoport, Inc., priority 2004, published 2005)

Biological target: T1, Human GLUT5 (Homo sapiens, UniProt P22732)
T1 construct: expressed in transfected cells; host or cells: Xenopus oocytes injected with in vitro transcribed GLUT5 cRNA
T1 sequence (P22732 1-501): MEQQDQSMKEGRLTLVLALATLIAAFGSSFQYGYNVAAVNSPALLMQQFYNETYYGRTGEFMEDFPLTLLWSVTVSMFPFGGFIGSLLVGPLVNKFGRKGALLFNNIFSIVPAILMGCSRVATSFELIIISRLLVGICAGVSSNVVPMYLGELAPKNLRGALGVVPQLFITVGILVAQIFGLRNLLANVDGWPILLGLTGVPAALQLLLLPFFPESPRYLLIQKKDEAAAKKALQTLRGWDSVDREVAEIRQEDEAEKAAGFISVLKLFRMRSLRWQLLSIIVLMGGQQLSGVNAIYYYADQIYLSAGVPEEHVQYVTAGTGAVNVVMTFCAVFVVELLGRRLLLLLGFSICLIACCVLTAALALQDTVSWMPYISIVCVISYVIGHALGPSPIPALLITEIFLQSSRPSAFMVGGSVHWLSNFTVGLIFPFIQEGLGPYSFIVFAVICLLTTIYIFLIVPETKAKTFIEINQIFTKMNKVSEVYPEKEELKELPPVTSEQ
Experiment: 3H-fructose uptake in Xenopus oocytes expressing GLUT5
Type: cell-based
Conditions: Xenopus oocytes injected with GLUT5 cRNA, ND96 buffer, 3 minutes, scintillation counting (FIG. 2)
Experimental: To assess transport function of a specific transporter protein, it can be desirable to clone the cDNA and express the protein in cells that have low endogenous transport activity. Human GLUT5 was cloned by PCR, fully sequenced, and subcloned into plasmids that can be used for expression in mammalian cells or Xenopus oocytes. […] For expression in Xenopus oocytes, in vitro GLUT5 cRNA was prepared and injected into defoliculated oocytes.
Oocytes expressing GLUT5 or control oocytes not expressing GLUT5 were incubated in an oocyte ringers (ND96) buffer (90 mM NaCl, 10 mM HemiNa HEPES, 2 mM KCl, 1 mM MgCl, 1.8 mM CaCl2) containing 0.5% bovine serum albumin and 3H-fructose ([…]) for 3 minutes. Oocytes were washed and uptake of radiolabel quantified by scintillation counting.

Question: Which “uptake of radiolabel into oocytes expressing GLUT5 versus noninjected controls” value does the source give for O=C(CO)[C@@H](O)[C@H](O)[C@H](O)CO [^3H-fructose, fructose] here?
Answer: higher levels of ^3H-fructose uptake than noninjected controls
